Measurements as given in patent US20160108005A1, “TREATMENT OR PREVENTION OF DEPRESSION USING MENTHOL AND/OR ICILIN” (NESTEC S.A., priority 2013, published 2016).

Legend:
Format in all cases: cell-based
neocortex = test: action potential threshold in mouse brain slice recordings
From the text: (§1) A mouse brain slice was used to study the effects of Menthol, Linalool (another transient receptor potential M8 (TRPM8) channel agonist) and Icilin. The amygdaloid complex is located within the medial temporal lobe in neocortex and amygdala. The lateral and basolateral nuclei of the amygdaloid complex receive sensory information from cortical and thalamic structures, process the information, and then transmit the information, either directly or through the basal nucleus, to the central nucleus. For experimental analysis of neuronal activity, synaptic responses from the basolateral complex can be evoked electrically using electrodes, and the action potentials can be measured.

[1] = system: Lateral Amygdala glutamatergic neuron (in a mouse brain slice); test: whole cell, current clamp recordings, 2.5 s square pulse at high depolarization (approximately −30 mV); details: for inactivation of the sodium fast channels / neuronal firing: square pulse of 2.5 s at high depolarization of membrane potential (approximately −30 mV), relative to control, FIG. 2
From the text: as §1, with “measured. […] A square pulse of 2.5 s was applied at high depolarization of membrane potential (approximately −30 mV).” for “measured.”

[2] = system: Lateral Amygdala glutamatergic neuron (in a mouse brain slice); test: whole cell, current clamp recordings with increasing concentration of gabazine (spontaneous action potential bursts); details: Menthol 250 μM applied extracellularly 10 minutes previous to and during increasing concentrations of gabazine; FIG. 5 compared to FIG. 3
From the text: as §1, with “measured. […] As shown, neurons spontaneously present action potential bursts due to massive presynaptic discharges.” for “measured.”

SMILES	amount of current required to trigger an action potential (neocortex)	threshold to trigger an action potential (neocortex)	action potentials at higher stimulation levels [1]	inactivation of the sodium fast channels / neuronal firing [1]	spontaneous action potential bursts [2]
O=C1NC(c2cccc([N+](=O)[O-])c2)=CCN1c1ccccc1O [Icilin]	increase the amount of current required to trigger an action potential	increase the threshold to trigger an action potential	abort action potentials at higher stimulation levels	inactivation of the sodium fast channels happens sooner relative to control	
C=CC(C)(O)CCC=C(C)C (stereo not shown) [Linalool]				inactivation of the sodium fast channels happens sooner relative to control	
CC1CCC(C(C)C)C(O)C1 (stereo not shown) [Menthol]	increase the amount of current required to trigger an action potential	increase the threshold to trigger an action potential	abort action potentials at higher stimulation levels	inactivation of the sodium fast channels happens sooner relative to control	complete absence or a strongly decreased presence of spontaneous bursts
